Measured values taken from ChEMBL document CHEMBL4480396 (Eur J Med Chem, 2019).
One block for each compound: values may come before it. Calls of active or inactive are those of the source. The calls are words filed in the database; no cut-off is given here.

Columns and labels:
HepG2 = experiment: Antiproliferative activity against human HepG2 cells measured after 48 hrs by MTT assay; assay type: functional, cell-based; conditions: HepG2, 48 h
PC-3 = experiment: Antiproliferative activity against human PC3 cells measured after 48 hrs by MTT assay; assay type: functional, cell-based; conditions: PC-3, 48 h
MGC-803 [1] = experiment: Antiproliferative activity against human MGC803 cells measured after 48 hrs by MTT assay; assay type: functional, cell-based; conditions: MGC-803, 48 h
Tubulin = experiment: Inhibition of tubulin (unknown origin) polymerization measured every minute by spectrophotometric method; assay type: protein-complex assay, Homo sapiens
MGC-803 [2] = experiment: Induction of apoptosis in human MGC803 cells assessed as up regulation of DR5 expression at 30 to 90 nM after 48 hrs by Western blot analysis; assay type: functional, cell-based
MGC-803 [3] = experiment: Induction of apoptosis in human MGC803 cells assessed as up regulation of cleaved PARP expression at 30 to 90 nM after 48 hrs by Western blot analysis; assay type: functional, cell-based
MGC-803 [4] = experiment: Induction of apoptosis in human MGC803 cells assessed as viable cells at 60 nM after 48 hrs by Annexin V-FITC/propidium iodide staining based flow cytometry (reference value: 94.9%); assay type: functional; conditions: MGC-803, 48 h, read-out: Activity
MGC-803 [5] = experiment: Induction of apoptosis in human MGC803 cells after 48 hrs by Annexin V-FITC/propidium iodide staining based flow cytometry; assay type: functional, cell-based
MGC-803 [6] = experiment: Cell cycle arrest in human MGC803 cells assessed as decrease in accumulation at G1-phase at 30 to 90 nM measured after 48 hrs by propidium iodide staining based flow cytometry; assay type: functional
MGC-803 [7] = experiment: Inhibition of colony formation in human MGC803 cells after 7 days by crystal violet staining based assay; assay type: functional, cell-based
MGC-803 [8] = experiment: Induction of apoptosis in human MGC803 cells assessed as viable cells at 90 nM after 48 hrs by Annexin V-FITC/propidium iodide staining based flow cytometry (reference value: 94.9%); assay type: functional; conditions: MGC-803, 48 h, read-out: Activity
MGC-803 [9] = experiment: Down regulation of CDK1 expression in human MGC803 cells by Western blot analysis; assay type: functional, cell-based
MGC-803 [10] = experiment: Antiproliferative activity against human MGC803 cells assessed as cell viability at 120 nM measured after 7 days by crystal violet staining based assay relative to control; assay type: functional; conditions: MGC-803, 168 h, read-out: Activity
MGC-803 [11] = experiment: Induction of apoptosis in human MGC803 cells assessed as up regulation of Bax expression at 30 to 90 nM after 48 hrs by Western blot analysis; assay type: functional, cell-based
MGC-803 [12] = experiment: Cell cycle arrest in human MGC803 cells assessed as decrease in accumulation at S-phase at 30 to 90 nM measured after 48 hrs by propidium iodide staining based flow cytometry; assay type: functional
MGC-803 [13] = experiment: Induction of apoptosis in human MGC803 cells assessed as early apoptotic cells at 30 nM after 48 hrs by Annexin V-FITC/propidium iodide staining based flow cytometry (reference value: 1.9%); assay type: functional
[14] = target: T1, Cyclin-dependent kinase 1/cyclin B1 (Homo sapiens) (UniProt P06493+P14635); experiment: Effect on CDK1-cyclin B1 protein-protein interaction in human MGC803 cells assessed as change in CDK1 expression at 30 to 90 nM measured after 48 hrs by immunoprecipitation based Western blot analysis; assay type: cell-based
MGC-803 [15] = experiment: Cell cycle arrest in human MGC803 cells assessed as accumulation at G2/M-phase at 90 nM measured after 48 hrs by propidium iodide staining based flow cytometry relative to control; assay type: functional
[16] = target: T1, Cyclin-dependent kinase 1/cyclin B1 (Homo sapiens); experiment: Effect on CDK1-cyclin B1 protein-protein interaction in human MGC803 cells assessed as change in cyclin B1 expression at 30 to 90 nM measured after 48 hrs by immunoprecipitation based Western blot analysis; assay type: cell-based
MGC-803 [17] = experiment: Induction of apoptosis in human MGC803 cells assessed as down regulation of Bcl-xl expression after 48 hrs by Western blot analysis; assay type: functional, cell-based
[18] = target: Tubulin beta (Homo sapiens) (UniProt P68371+Q9H4B7+Q13509+P04350+Q3ZCM7+P07437+Q13885+Q9BVA1+Q9BUF5+A6NNZ2); experiment: Inhibition of EBI binding to beta-tubulin colchicine binding site in human MGC803 cells at 0.4 to 4 uM preincubated for 2 hrs followed by EBI addition and measured after 2 hrs by Western blot analysis; assay type: cell-based
MGC-803 [19] = experiment: Antiproliferative activity against human MGC803 cells assessed as cell viability at 90 nM measured after 7 days by crystal violet staining based assay relative to control; assay type: functional; conditions: MGC-803, 168 h, read-out: Activity
MGC-803 [20] = experiment: Down regulation of CDK1 expression in human MGC803 cells at 30 to 90 nM in presence of proteasome inhibitor MG132 by Western blot analysis; assay type: functional, cell-based
MGC-803 [21] = experiment: Induction of apoptosis in human MGC803 cells assessed as down regulation of XIAP expression after 48 hrs by Western blot analysis; assay type: functional, cell-based
MGC-803 [22] = experiment: Induction of apoptosis in human MGC803 cells assessed as late apoptotic cells at 90 nM after 48 hrs by Annexin V-FITC/propidium iodide staining based flow cytometry (reference value: 2.9%); assay type: functional
MGC-803 [23] = experiment: Cell cycle arrest in human MGC803 cells assessed as accumulation at G2/M-phase measured after 48 hrs by propidium iodide staining based flow cytometry; assay type: functional
MGC-803 [24] = experiment: Induction of apoptosis in human MGC803 cells assessed as early apoptotic cells at 90 nM after 48 hrs by Annexin V-FITC/propidium iodide staining based flow cytometry (reference value: 1.9%); assay type: functional
[25] = target: Cyclin-dependent kinase 1 (Homo sapiens) (UniProt P06493); experiment: Effect on CDK1 phosphorylation at Tyr15 residues in human MGC803 cells at 30 to 90 nM by Western blot analysis; assay type: cell-based
MGC-803 [26] = experiment: Up regulation of CDC25C expression in human MGC803 cells at 30 to 90 nM by Western blot analysis; assay type: functional, cell-based
MGC-803 [27] = experiment: Induction of apoptosis in human MGC803 cells assessed as late apoptotic cells at 60 nM after 48 hrs by Annexin V-FITC/propidium iodide staining based flow cytometry (reference value: 2.9%); assay type: functional
MGC-803 [28] = experiment: Induction of apoptosis in human MGC803 cells assessed as necrotic cells at 90 nM after 48 hrs by Annexin V-FITC/propidium iodide staining based flow cytometry (reference value: 0.3%); assay type: functional
MGC-803 [29] = experiment: Induction of apoptosis in human MGC803 cells assessed as late apoptotic cells at 30 nM after 48 hrs by Annexin V-FITC/propidium iodide staining based flow cytometry (reference value: 2.9%); assay type: functional
MGC-803 [30] = experiment: Induction of apoptosis in human MGC803 cells assessed as early apoptotic cells at 60 nM after 48 hrs by Annexin V-FITC/propidium iodide staining based flow cytometry (reference value: 1.9%); assay type: functional
MGC-803 [31] = experiment: Antiproliferative activity against human MGC803 cells assessed as cell viability at 30 nM measured after 7 days by crystal violet staining based assay relative to control; assay type: functional; conditions: MGC-803, 168 h, read-out: Activity
MGC-803 [32] = experiment: Induction of apoptosis in human MGC803 cells assessed as necrotic cells at 30 nM after 48 hrs by Annexin V-FITC/propidium iodide staining based flow cytometry (reference value: 0.3%); assay type: functional
MGC-803 [33] = experiment: Induction of apoptosis in human MGC803 cells assessed as necrotic cells at 60 nM after 48 hrs by Annexin V-FITC/propidium iodide staining based flow cytometry (reference value: 0.3%); assay type: functional
Tubulin (Homo sapiens) = Tubulin (Homo sapiens) (UniProt P68371+Q9H4B7+P0DPH7+P68366+Q13509+Q71U36+P04350+Q3ZCM7+P07437+P68363+Q9BQE3+Q6PEY2+Q13885+Q9BVA1+Q9BUF5); experiment: Induction of microtubule depolymerization in human MGC803 cells at 60 to 90 nM measured after 48 hrs by DAPI staining based laser confocal microscopic analysis; assay type: cell-based
MGC-803 [34] = experiment: Induction of apoptosis in human MGC803 cells assessed as viable cells at 30 nM after 48 hrs by Annexin V-FITC/propidium iodide staining based flow cytometry (reference value: 94.9%); assay type: functional; conditions: MGC-803, 48 h, read-out: Activity
MGC-803 [35] = experiment: Antiproliferative activity against human MGC803 cells assessed as cell viability at 60 nM measured after 7 days by crystal violet staining based assay relative to control; assay type: functional; conditions: MGC-803, 168 h, read-out: Activity

T1 sequence (P06493 whole entry, looked up): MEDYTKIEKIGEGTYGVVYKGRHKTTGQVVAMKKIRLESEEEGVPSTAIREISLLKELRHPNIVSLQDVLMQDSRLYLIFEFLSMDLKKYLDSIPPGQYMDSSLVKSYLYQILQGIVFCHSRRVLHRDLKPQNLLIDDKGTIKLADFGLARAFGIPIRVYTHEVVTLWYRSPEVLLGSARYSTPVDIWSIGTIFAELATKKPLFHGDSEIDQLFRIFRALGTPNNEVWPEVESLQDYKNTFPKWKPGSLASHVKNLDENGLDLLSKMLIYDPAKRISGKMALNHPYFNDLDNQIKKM
T1 sequence (P14635 whole entry, looked up): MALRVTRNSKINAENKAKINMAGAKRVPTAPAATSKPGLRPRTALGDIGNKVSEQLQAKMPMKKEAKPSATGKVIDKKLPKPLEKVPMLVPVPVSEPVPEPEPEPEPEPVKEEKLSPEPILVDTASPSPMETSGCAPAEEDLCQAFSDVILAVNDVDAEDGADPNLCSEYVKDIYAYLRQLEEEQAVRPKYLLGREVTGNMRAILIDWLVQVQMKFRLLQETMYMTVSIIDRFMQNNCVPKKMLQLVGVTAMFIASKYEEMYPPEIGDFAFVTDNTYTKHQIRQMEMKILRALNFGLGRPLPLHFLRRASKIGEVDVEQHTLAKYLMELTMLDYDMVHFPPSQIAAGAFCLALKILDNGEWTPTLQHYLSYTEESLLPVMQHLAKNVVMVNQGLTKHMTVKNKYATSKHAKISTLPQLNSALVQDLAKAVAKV
Cyclin-dependent kinase 1 (Homo sapiens), sequence (P06493 whole entry, looked up): as the sequence (P06493 whole entry, looked up) above

IC50 (HepG2): 6.25 µM
IC50 (PC-3): 5.14 µM
IC50 (MGC-803 [1]): 3660 nM
SMILES: COc1ccc(CN(C(=O)Cn2cc(COc3cc(=O)oc4ccccc34)nn2)c2cc(OC)c(OC)c(OC)c2)cc1

IC50 (HepG2): 1.3 µM
IC50 (PC-3): 0.86 µM
IC50 (MGC-803 [1]): 180 nM
SMILES: COc1ccc(CN(C(=O)Cn2cc(COc3ccc4ccc(=O)oc4c3)nn2)c2cc(OC)c(OC)c(OC)c2)cc1

IC50 (HepG2): 20.5 µM
IC50 (PC-3): 45.3 µM
IC50 (MGC-803 [1]): 12500 nM
SMILES: COc1ccc(CN(C(=O)Cn2cc(COc3ccccc3)nn2)c2cc(OC)c(OC)c(OC)c2)cc1

IC50 (Tubulin): 2160 nM
IC50 (HepG2): 1.74 µM
IC50 (PC-3): 0.34 µM
Activity [14]: inactive
Activity [16]: inactive
inhibition [18]: Active
Activity [25]: inactive
Activity (Tubulin (Homo sapiens)): Active
IC50 (MGC-803 [1]): 130 nM
SMILES: COc1ccc(CN(C(=O)Cn2cc(COc3ccc4c(C)cc(=O)oc4c3)nn2)c2cc(OC)c(OC)c(OC)c2)cc1
Activity (MGC-803 [2]): Active
Activity (MGC-803 [3]): Active
viability at 0.06 µM (MGC-803 [4]): 92.1%
Activity (MGC-803 [5]): Dose-dependent effect
Activity (MGC-803 [6]): Active
inhibition (MGC-803 [7]): Dose-dependent effect
viability at 0.09 µM (MGC-803 [8]): 37.9%
Activity (MGC-803 [9]): Dose-dependent effect
viability at 0.12 µM (MGC-803 [10]): 16%
Activity (MGC-803 [11]): Active
Activity (MGC-803 [12]): Active
Activity (MGC-803 [13]): 2.1%
Activity (MGC-803 [15]): Active
Activity (MGC-803 [17]): Dose-dependent effect
viability at 0.09 µM (MGC-803 [19]): 31.8%
Activity (MGC-803 [20]): Active
Activity (MGC-803 [21]): Dose-dependent effect
Activity (MGC-803 [22]): 36.8%
Activity (MGC-803 [23]): Dose-dependent effect
Activity (MGC-803 [24]): 25%
Activity (MGC-803 [26]): inactive
Activity (MGC-803 [27]): 4.5%
Activity (MGC-803 [28]): 0.4%
Activity (MGC-803 [29]): 3.1%
Activity (MGC-803 [30]): 3.1%
viability at 0.03 µM (MGC-803 [31]): 85.9%
Activity (MGC-803 [32]): 0.2%
Activity (MGC-803 [33]): 0.3%
viability at 0.03 µM (MGC-803 [34]): 94.5%
viability at 0.06 µM (MGC-803 [35]): 62.6%

More lines, now with the values behind:

SMILES: COc1cc2c(c(OC)c1OC)-c1ccc(OC)c(=O)cc1[C@@H](NC(C)=O)CC2 [COLCHICINE]
IC50 (HepG2): 4.6 µM
IC50 (PC-3): 0.59 µM
IC50 (MGC-803 [1]): 270 nM

SMILES: C#CCOc1ccc2ccc(=O)oc2c1
IC50 (HepG2): > 80 µM
IC50 (PC-3): > 80 µM
IC50 (MGC-803 [1]): > 80000 nM

SMILES: COc1ccc(CN(C(=O)Cn2cc(CNS(=O)(=O)c3ccc(Br)cc3)nn2)c2cc(OC)c(OC)c(OC)c2)cc1
IC50 (HepG2): 7.37 µM
IC50 (PC-3): 12.5 µM
IC50 (MGC-803 [1]): 430 nM

SMILES: COc1ccc(CN(C(=O)Cn2cc(CSc3nc4ccccc4o3)nn2)c2cc(OC)c(OC)c(OC)c2)cc1
IC50 (HepG2): 15.6 µM
IC50 (PC-3): 5.05 µM
IC50 (MGC-803 [1]): 1850 nM

SMILES: COc1ccc(CN(C(=O)Cn2cc(CSc3nnnn3C)nn2)c2cc(OC)c(OC)c(OC)c2)cc1
IC50 (HepG2): 28.3 µM
IC50 (PC-3): 10.9 µM
IC50 (MGC-803 [1]): 6570 nM

SMILES: COc1ccc(CN(C(=O)Cn2cc(CN3c4ccccc4Sc4ccccc43)nn2)c2cc(OC)c(OC)c(OC)c2)cc1
IC50 (HepG2): > 80 µM
IC50 (PC-3): > 80 µM
IC50 (MGC-803 [1]): > 80000 nM
